According to US5736559A, “Biphenyl derivatives, pharmaceutical compositions containing these compounds and processes for preparing them” (Karl Thomae GmbH, priority 1991, dated 1998):
Where a name gives a salt, the structure may show the parent alone.

Columns and labels:
[1] = target: Fibrinogen binding to human thrombocytes; assay: Fibrinogen binding to human thrombocytes; settings: 125I fibrinogen; gel-filtered human platelets; ADP; 20 minutes at ambient temperature; read-out: Fibrinogen binding test IC50
Experimental: Fibrinogen binding to human thrombocytes The blood obtained by puncturing an antecubital vein is anticoagulated with trisodium citrate (final concentration: 13 mM) and centrifuged for 10 minutes at 170 xg. The supernatant platelet-rich plasma is poured onto a Sepharose 2B column (Pharmacia) and eluted with a solution of 90 mM common salt, 14 mM trisodium citrate, 5 mM glucose and 50 mM Tris(hydroxymethyl)aminomethane, adjusted to pH 7.4. The gel-filtered platelets (GFP) appearing before the plasma proteins are used for the binding experiments. 50 μl of a 60 mM calcium chloride solution, 50 μl of a 0.6 mM adenosine diphosphate solution, 100 μl of substance solution or solvent and 50 μl of fibrinogen solution (containing 3 μg of ^125 I fibrinogen) are added to 750 μl of GFP and incubated for 20 minutes at ambient temperature. The non-specific binding is determined in the presence of 3 mg/ml of cold fibrinogen. 900 μl of the incubated material are carefully pipetted onto 250 μl of silicon oil (AP 38: AR 20, 1:2 v/v, Wacker Chemie) in Eppendorf tubes and centrifuged for 2 minutes at 10,000 xg. The aqueous supernatant and some of the oil are drawn off, the tips of the tubes are cut off together with the platelet pellet and the quantity of bound fibrinogen is determined in a gamma counter. The concentration of substance which brings about a 50% inhibition in fibrinogen binding is determined from a series of concentrations and is given as the IC50 value.

[2] = system: thrombocyte (platelet) aggregation; assay: Antithrombotic activity: collagen-induced thrombocyte aggregation in platelet rich plasma (Born and Cross); format: cell-based; settings: Homo sapiens, platelet rich plasma from healthy test subjects, 10 minutes at 37° C. preincubation, 50% change in optical density, read-out: Inhibition of platelet aggregation EC50
Experimental: 2. Antithrombotic activity Method: Thrombocyte aggregation is measured in platelet rich plasma from healthy test subjects using the Born and Cross method (J. Physiol. 170, 397 (1964)). In order to inhibit coagulation the blood is mixed with sodium citrate 3.14% in a ratio by volume of 1:10. Collagen-induced aggregation: The course of the decrease in optical density of the platelet suspension is photometrically measured and recorded after the addition of the substance which triggers aggregation. The rate of aggregation is deduced from the gradient angle of the density curve. The point on the curve where there is maximum transmittance is used to calculate the optical density. The quantity of collagen used is as little as possible but sufficient to give an irreversible reaction curve. Standard commercial collagen produced by Hormonchemie of Munich is used. Before the addition of the collagen the plasma is incubated for 10 minutes at 37° C. with the substance. From the measurements obtained, an EC50 is determined graphically, relating to a 50% change in optical density in terms of the inhibition of aggregation.

mice = assay: tolerability after intravenous administration in mice; format: in vivo; settings: for sedation during the injection phase: mouse, in vivo, iv, 30 mg/kg
mouse = assay: tolerability after peroral administration in the mouse; format: in vivo; settings: 2.0 g/kg
rat = assay: tolerability after peroral administration in the rat; format: in vivo; settings: 2.0 g/kg
[3] = system: collagen-induced thrombocyte aggregation; assay: collagen-induced thrombocyte aggregation ex vivo in Rhesus monkeys after oral administration; settings: oral administration of 1 mg/kg
Experimental: Moreover, the compound of Example 8(5) inhibits the collagen-induced thrombocyte aggregation ex vivo in Rhesus monkeys, for example, after oral administration of 1 mg/kg for longer than 8 hours.

Compound | IC50 [1] [µM] | EC50 [2] [µM] | other results
COc1ccc(CCNC(=O)C(CC(=O)O)NC(=O)Cc2ccc(-c3ccc(C(=N)N)cc3)cc2)cc1.Cl (stereo not drawn) [2(11), 4-amidino-4'-[[2-carboxy-1-[[2-(4-methoxyphenyl)-ethyl]aminocarbonyl]ethylamino]carbonylmethyl]biphenyl hydrochloride] | 0.36 | 2.2 | sedation during the injection phase (mice): 1 or 2 animals were sedated
Cl.N=C(N)c1ccc(-c2ccc(C(=O)N3CCC(CC(=O)O)CC3)cc2)cc1 [Example 1(39), 4-amidino-4'-[(4-carboxymethylpiperidino)-carbonyl]biphenyl hydrochloride] | 0.024 | 0.1 | animals died (mice; mice, intravenous, 60 mg/kg, three animals tested): none of the three animals tested died
N=C(N)c1ccc(-c2ccc(NC(=O)CCCC(=O)O)cc2)cc1 [1(1), 4-amidino-4'-(4-carboxybutyrylamino) biphenyl] | 0.16 | 1.1 | sedation during the injection phase (mice): 1 or 2 animals were sedated
N=C(N)c1ccc(-c2ccc(C(=O)NC3CCC(C(=O)O)CC3)cc2)cc1 (stereo not drawn) [1(80), 4-amidino-4'-[(4-carboxycyclohexyl)aminocarbonyl]-biphenyl hydrochloride] | 0.031 | 0.04 | 
COC(=O)CC1CCCN(C(=O)Cc2ccc(-c3ccc(C(=N)N)cc3)cc2)C1 (stereo not drawn) [6(58), 4-amidino-4'-[(3-methoxycarbonylmethylpiperidino)-carbonylmethyl]biphenyl hydrochloride] | 34 | 23 | 
COC(=O)CN1CCN(C(=O)c2ccc(-c3ccc(C(=N)N)cc3)cc2)CC1 [6(74), 4-amidino-4'-[(4-methoxycarbonylmethylpiperazino)-carbonyl]biphenyl dihydrochloride] | 24 | 3.2 | 
N=C(N)c1ccc(-c2ccc(C(=O)NCCCC(=O)O)cc2)cc1 [1(2), 4-amidino-4'-[(3-carboxypropyl)aminocarbonyl]-biphenyl] | 0.12 | 7 | 
COC(=O)CNC(=O)COc1ccc(-c2ccc(C(=N)N)cc2)cc1 [6(2), 4-amidino-4'-[[(4-methoxycarbonylmethyl)-aminocarbonyl]methyloxy]biphenyl hydrochloride] | 14 | 40 | 
N=C(N)c1ccc(-c2ccc(C(=O)N3CCCC(CC(=O)O)C3)cc2)cc1 (stereo not drawn) [1(41), 4-amidino-4'-[(3-carboxymethylpiperidino)-carbonyl]biphenyl hydrochloride] | 0.52 | 2.6 | 
COC(=O)CC1CCN(C(=O)c2ccc(-c3ccc(C(=N)N)cc3)cc2)CC1 [6(50), 4-amidino-4'-[(4-methoxycarbonylmethylpiperidino)-carbonyl]biphenyl hydrochloride] | 0.34 | 0.89 | 
COC(=O)CC1CCN(C(=O)c2ccc(-c3ccc(C(=N)NC(=O)OC)cc3)cc2)CC1 [Example 8(5), 4-(N-methoxycarbonylamidino)-4'-[(4-methoxycarbonylmethylpiperidino)carbonyl]biphenyl] |  |  | toxic effects (mouse): no toxic effects were observed; toxic effects (rat): no toxic effects were observed; duration of inhibition of collagen-induced thrombocyte aggregation ex vivo [3]: > 8 h
COC(=O)CCCCOc1ccc(-c2ccc(C(=N)N)cc2)cc1 [6(9), 4-amidino-4'-(4-methoxycarbonylbutyloxy)biphenyl hydrochloride] | 0.97 | 1.3 | 

Further lines, with some results ahead:

IC50 [1] [µM] | Compound | EC50 [2] [µM] | other results
1.9 | N=C(N)c1ccc(-c2ccc(OCC(=O)N3CCCC(C(=O)O)C3)cc2)cc1 (stereo not drawn) [1(7), 4-amidino-4'-[[(3-carboxypiperidino)carbonyl]-methyloxy]biphenyl] | 3.8 | 
2.7 | N=C(N)c1ccc(-c2ccc(C(=O)N3CCC(C(=O)O)CC3)cc2)cc1 [1(74), 4-amidino-4'-[(4-carboxypiperidino)carbonyl]-biphenyl hydrochloride] | 10.7 | 
5.7 | N=C(N)c1ccc(-c2ccc(C(=O)NCC(N)=O)cc2)cc1 [6(86), 4-amidino-4'-(aminocarbonylmethylaminocarbonyl)-biphenyl hydrochloride] | 21 | 
> 10 | N=C(N)c1ccc(-c2ccc(OCCCC(=O)O)cc2)cc1 [2(1), 4-amidino-4'-(3-carboxypropyloxy)biphenyl] | 56 | 
0.47 | N=C(N)c1ccc(-c2ccc(CC(=O)N3CCCC(CC(=O)O)C3)cc2)cc1 (stereo not drawn) [1(47), 4-amidino-4'-[(3-carboxymethylpiperidino)-carbonylmethyl]biphenyl hydrochloride] | 2.7 | 
19 | COC(=O)Cc1cccc(NC(=O)Cc2ccc(-c3ccc(C(=N)N)cc3)cc2)c1 [6(46), 4-amidino-4'-[[[3-(methoxycarbonylmethyl)phenyl]-aminocarbonyl]methyl]biphenyl hydrochloride] | 82 | 
0.57 | COC(=O)CCCCCOc1ccc(-c2ccc(C(=N)N)cc2)cc1 [Example 6, Di-[4-Amidino-4'-(5-methoxycarbonylpentyloxy)biphenyl]dihydrogencarbonate] | 2.6 | 
